Measured values published in patent publication US4514403A, “Hydrouracil compounds” (Yoshitomi Pharmaceutical Industries Ltd., priority 1980, dated 1985).
Structures can show the parent of a compound that is named as a salt.

Experiments:
[1] = tested on: ventro-medial hypothalamus; settings: compared with Test compound B; cited from earlier work
[2] = Bradykinin nociception test; settings: for ED50: Rattus norvegicus, read-out: Bradykinin Nociception Test ED50
[3] = Phenylquinone writhing test; settings: for ED50: Mus musculus, read-out: Phenylquinone Writhing Test ED50
Protocol: (§1) Phenylquinone writhing test, electric stimuli test, tooth pulp nociception test, hot plate test and AgNO3 arthritis test were performed according to the methods described by Y. Marayama et al. in "Arzneimittel-Forschung", 28 (11), 2102-2107 (1978), and bradykinin nociception test was performed by the method described by G. F. Blane in "Journal of Pharmacy and Pharmacology", 19, 367-373 (1967).

[4] = Electric stimuli test; settings: for ED50: Mus musculus, read-out: Electric Stimuli Test ED50; for Electric Stimuli Test ED50: mice
[5] = in vivo; settings: rat
[6] = tested on: evoked potentials in central nervous system; test: Effect on the various evoked potentials in central nervous system; type: in vivo, Male Wistar rats; set-up: key to Amplitude of Evoked Responses, VP-COR / Amplitude of Evoked Responses, HIP-AMY / Amplitude of Evoked Responses, HIP-SEP: -: No change; --: No change; (+): Levallorphan antagonism; (-): Levallorphan antagonism
Protocol: Male Wistar rats, weighing 300-350 g, were used under ethyl ether anesthesia. The trachea and femoral vein were cannulated for artificial respiration and drug injection, respectively. Immobilization of the rat was maintained by gallamine thioethiodide (10 mg/kg) given intravenously every one hours. All wound edges were infiltration with carbocaine hydrochloride. The experiments began after at least 2 hours had elapsed from discontinuance of ether anesthesia. The COR (somatosensory cortex) evoked potentials by VP (neucleus ventralis posterior thalamus) stimulation (VP - COR evoked potential) were recorded from somatosensory cortex, through a silver electrode applied directly to the cortex. In order to record VP and MRF (midbrain reticular formation) evoked potentials by sciatic nerve stimulation or AMY (amygdala) and SEP (septum) evoked potentials by HIP (hippocampus) stimulation, bipolar stainless steel electrodes were stereotaxically placed into the VP, MRF, AMY, SEP and HIP. The stimuli were delivered to various sites every 2 seconds from a stimulation and consisted of 0.1 msec rectangular pulses (twice threshold intensity). The evoked responses were visualized on an oscilloscope. All records were made up of 20 superimposed tracings.

[7] = AgNO3 arthritis test; settings: for ED50: Rattus norvegicus, sc, read-out: AgNO3 Arthritis Test ED50
[8] = Hot plate test; settings: for ED50: Rattus norvegicus, sc, read-out: Hot Plate Test ED50
Protocol: as §1

[9] = Antagonism by levallorphan in electric stimuli test; settings: electric stimuli test in mice; levallorphan (narcotic antagonist)
[10] = Tooth pulp nociception test
Protocol: as §1

[11] = Mouse jumping test; settings: administration at a lethal dose
[12] = tested on: central nervous system; test: Activity on central nervous system; settings: in vivo
[13] = tested on: ventro-medial hypothalamus; test: Effect on the aggressive-defense reaction produced by electrical stimulation at the ventro-medial hypothalamus of cats; type: in vivo; settings: for Threshold of current, Ear-flattening / Threshold of current, Growling / Threshold of current, Retreat with provocation / Threshold of current, Pupil dilatation: standard current = 100
Protocol: The latter used the double-walled cannula method which permitted electrical and chemical stimulation at the same locus in brain. H. Nakao et al. in "Integrative Control Functions of the Brain", vol. […] Similar studies have been done using serotonin by L. H. Allikmets in "Pavlov Journal of High Nervous Activity", 22, 597-602 (1972) and using chlorpromazine, haloperidol, pentobarbital and diazepam by H. Maeda in "Folia Psychiatrica et Neurologica Japonica", 30, 539-546 (1976).
Alternatively 30 mg/kg of Test compound B was injected subcutaneously.

[14] = calculated from inhibition (%) in a low dose

For CN(C)CCCN1c2ccccc2Sc2ccc(Cl)cc21 [chlorpromazine], the “inhibition of threatening and rage reactions” value [1] is given as “less active”.
With Cc1c(N(C)C)c(=O)n(-c2ccccc2)n1C [Aminopyrine, reference compound] the ED50 ([2]; sc) was 30 mg/kg, the ED50 ([3]; po) was 92 mg/kg and the ED50 ([3]; sc) was 16 mg/kg. It also gave an ED50 ([4]; po) of 315 mg/kg, an ED50 ([4]; sc) of 100 mg/kg and an LD50 ([5]; ip) of 248 mg/kg. For the same compound, the LD50 ([5]; po) was 1050 mg/kg, the “Amplitude of Evoked Responses, HIP-AMY” value ([6]; 10 mg/kg i.v.) was “--” and the “Amplitude of Evoked Responses, HIP-SEP” value ([6]; 10 mg/kg i.v.) was “--”. For the same compound, the “Amplitude of Evoked Responses, VP-COR” value ([6]; 10 mg/kg i.v.) was “--”, the “Amplitude of Evoked Responses, HIP-AMY” value ([6]; 25 mg/kg i.v.) was “--” and the “Amplitude of Evoked Responses, HIP-SEP” value ([6]; 25 mg/kg i.v.) was “--”. For the same compound, the “Amplitude of Evoked Responses, HIP-AMY” value ([6]; 50 mg/kg i.v.) was “--”, the “Amplitude of Evoked Responses, HIP-SEP” value ([6]; 50 mg/kg i.v.) was “--” and the ED50 [7] was 170 mg/kg.
In the case of COc1cccc(C2(O)CCCCC2CN(C)C)c1 (stereo not drawn) [Tramadol, reference compound], the “Bradykinin Nociception Test ED50” value ([2]; rats, p.o.) is reported as 50 mg/kg, the “Bradykinin Nociception Test ED50” value ([2]; rats, s.c.) is reported as 70 mg/kg and the “Hot Plate Test ED50” value ([8]; rats, s.c.) is reported as 50 mg/kg. For the same compound, the “Influence of levallorphan on analgesic activity” value [9] was “reduced”, the “Phenylquinone Writhing Test ED50” value ([3]; mice, p.o.) was 11 mg/kg and the “Phenylquinone Writhing Test ED50” value ([3]; mice, s.c.) was 1.5 mg/kg. For the same compound, the “Tooth Pulp Nociception Test IT100” value ([10]; rabbit, in vivo, iv) was 5 mg/kg, the “Electric Stimuli Test ED50” value ([4]; p.o.) was 23 mg/kg and the “Electric Stimuli Test ED50” value ([4]; s.c.) was 12 mg/kg. For the same compound, the LD50 ([5]; ip) was 150 mg/kg, the LD50 ([5]; po) was 228 mg/kg and the LD50 ([5]; sc) was 300 mg/kg. The “AgNO3 Arthritis Test ED50” value ([7]; rats, s.c.) was 17 mg/kg.
In the case of CN1C(=O)CN=C(c2ccccc2)c2cc(Cl)ccc21 [diazepam], the “inhibition of threatening and rage reactions” value [1] is listed as “less active”.
For CC(C)=CCN1CCC2(C)c3cc(O)ccc3CC1C2C (stereo not drawn) [Pentazocine], the ED50 ([2]; po) was 100 mg/kg, the ED50 ([2]; sc) was 8 mg/kg and the “Relative potency (Test compound A = 1), Bradykinin Nociception Test” value ([2]; calculated from ED50) was 0.5. For the same compound, the “Relative potency (Test compound A = 1), Bradykinin Nociception Test” value [2, 14] was 0.34, the “Inhibition (%) of Occurrence of Pain” value ([2]; rats, 2.5 mg/kg s.c.) was 13% and the ED50 [8] was 30 mg/kg. The ED50 ([3]; po) was 18 mg/kg, the ED50 ([3]; sc) was 1.3 mg/kg and the “Relative potency (Test compound A = 1), Phenylquinone Writhing Test” value ([3]; calculated from ED50) was 0.77. For the same compound, the “Relative potency (Test compound A = 1), Phenylquinone Writhing Test” value [3, 14] was 0.31, the “Inhibition (%) of Occurrence of Pain” value ([3]; mice, 0.5 mg/kg s.c.) was 15% and the “Relative potency (Test compound A = 1), Tooth Pulp Nociception Test” value ([10]; calculated from ED50) was 0.82. For the same compound, the “Relative potency (Test compound A = 1), Tooth Pulp Nociception Test” value [10, 14] was 0.59, the “increasing rate in threshold” value ([10]; rabbits, 2.5 mg/kg i.v.) was 44% and the ED50 ([4]; po) was 178 mg/kg. It also gave an ED50 ([4]; sc) of 23 mg/kg, an LD50 ([5]; po) of 1100 mg/kg and an LD50 ([5]; sc) of 270 mg/kg. For the same compound, the ED50 [7] was 10 mg/kg, the “Relative potency (Test compound A = 1), AgNO3 Arthritis Test” value ([7]; calculated from ED50) was 0.7 and the “Relative potency (Test compound A = 1), AgNO3 Arthritis Test” value [7, 14] was 0.78. For the same compound, the “Inhibition (%) of Occurrence of Pain” value ([7]; rats, 5 mg/kg s.c.) was 33%.
O=C1CCN(C2CCN(CC=Cc3ccccc3)CC2)C(=O)N1 [Test compound B, 1-(1-cinnamyl-4-piperidyl)hydrouracil hydrochloride] gave an ED50 ([2]; po) of 100 mg/kg, an ED50 ([2]; sc) of 10 mg/kg and an ED50 [8] of 90 mg/kg. For the same compound, the jumping symptom [11] was “did not cause any jumping symptom”, the muscle relaxant activity [12] was “did not show practically such activities” and the reserpine potentiating activity [12] was “did not show practically such activities”. For the same compound, the “suppression of spontaneous locomotor activity” value [12] was “did not show practically such activities”, the ED50 ([3]; po) was 18 mg/kg and the ED50 ([3]; sc) was 7.8 mg/kg. For the same compound, the ED50 ([4]; po) was 200 mg/kg, the ED50 ([4]; sc) was 40 mg/kg and the LD50 ([5]; ip) was 150 mg/kg. The LD50 ([5]; po) was 1200 mg/kg, the LD50 ([5]; sc) was 500 mg/kg and the “Threshold of current, Ear-flattening” value ([13]; 30 mg/kg s.c., 0 min) was 100. The “Threshold of current, Growling” value ([13]; 30 mg/kg s.c., 0 min) was 100, the “Threshold of current, Retreat with provocation” value (shortened to “Threshold of current, Retreat”) ([13]; 30 mg/kg s.c., 0 min) was 100 and the “Threshold of current, Ear-flattening” value ([13]; 30 mg/kg s.c., 70 min) was 120. The “Threshold of current, Growling” value ([13]; 30 mg/kg s.c., 70 min) was 177, the “Threshold of current, Retreat” value ([13]; 30 mg/kg s.c., 70 min) was 142 and the “Threshold of current, Ear-flattening” value ([13]; 30 mg/kg s.c., 110 min) was 105. The “Threshold of current, Growling” value ([13]; 30 mg/kg s.c., 110 min) was 184, the “Threshold of current, Retreat” value ([13]; 30 mg/kg s.c., 110 min) was 127 and the “duration for which the threshold of responses was raised” value ([13]; 30 mg/kg subcutaneously) was “over 2 hours”. The “rage behaviour with provocation by the experimenter” value ([13]; 30 mg/kg subcutaneously) was “did not show rage behaviour”, the “duration for which the threshold of current was raised” value ([13]; 10^-6 g in 0.5 μl through double-walled cannula) was 60 min and the “Threshold of current, Ear-flattening” value ([13]; 10^-6 g in brain, 0 min) was 100. The “Threshold of current, Growling” value ([13]; 10^-6 g in brain, 0 min) was 100, the “Threshold of current, Pupil dilatation” value ([13]; 10^-6 g in brain, 0 min) was 100 and the “Threshold of current, Retreat” value ([13]; 10^-6 g in brain, 0 min) was 100. The “Threshold of current, Ear-flattening” value ([13]; 10^-6 g in brain, 5 min) was 200, the “Threshold of current, Growling” value ([13]; 10^-6 g in brain, 5 min) was 200 and the “Threshold of current, Pupil dilatation” value ([13]; 10^-6 g in brain, 5 min) was 200. For the same compound, the “Threshold of current, Retreat” value ([13]; 10^-6 g in brain, 5 min) was 180, the “Threshold of current, Ear-flattening” value ([13]; 10^-6 g in brain, 20 min) was 200 and the “breathing of the cat” value ([13]; during this experiment) was “normal”. For the same compound, the “threatening, rage and retreat reactions” value ([13]; electrical stimulation of ventro-medial hypothalamus) was “clearly suppressed” and the ED50 [7] was 25 mg/kg.
